10 compounds from PubChem BioAssay AID194 (DTP/NCI, 2004) can be followed below.

Several values for one entry are separate records, joined by “and”; a condition that tells them apart may be missing. Equal values may be shown once. Records with an inconclusive call do not appear.

This assay deals with BDF1 mice, B16 melanoma s.c., survival/tumor T/C. The assay can be described thus: NCI In Vivo Anticancer Drug Screen. Data for tumor model B16 Melanoma (subcutaneous) in B6D2F1 (BDF1) mice. The procedure:
The antitumor activity of compounds was measured in mice bearing transplantable tumors. Survival or tumor size were measured and the results are expressed as the measurement made in the treated group (T) divided by the measurement made in the vehicle treated control group (C). The tumor model used in this assay is B16 Melanoma (subcutaneous) in B6D2F1 (BDF1) mice

The mark [1] stands for this setting: endpoint: median survival time, dose: 0.25 mg/kg/injection, schedule: Q01DX009 (ip), vehicle: saline, higher = longer survival.
[2] abbreviates: endpoint: median survival time, dose: 0.5 mg/kg/injection, schedule: Q01DX009 (ip), vehicle: saline, higher = longer survival.
Setting [3] is: endpoint: median survival time, dose: 1.0 mg/kg/injection, schedule: Q01DX009 (ip), vehicle: Klucel (hydroxypropylcellulose) (HPC), higher = longer survival.
[4] abbreviates: endpoint: median survival time, dose: 1.0 mg/kg/injection, schedule: Q01DX009 (ip), vehicle: saline, higher = longer survival.
[5] abbreviates: endpoint: median survival time, dose: 0.12 mg/kg/injection, schedule: Q01DX009 (ip), vehicle: saline, higher = longer survival.
The mark [6] stands for this setting: endpoint: median survival time, dose: 0.25 mg/kg/injection, schedule: Q01DX009 (ip), vehicle: saline with Tween-80, higher = longer survival.
Where [7] appears, read: endpoint: median survival time, dose: 0.5 mg/kg/injection, schedule: Q01DX009 (ip), vehicle: saline with Tween-80, higher = longer survival.

As to `O=C(NP(=O)(N1CC1)N1CC1)c1cc(I)ccc1I`, the T/C is 96 % of control (endpoint: median survival time, dose: 1.0 mg/kg/injection, schedule: Q02DX009 (ip), vehicle: saline with Tween-80, higher = longer survival); 103 % of control (endpoint: median survival time, dose: 1.0 mg/kg/injection, schedule: Q02DX009 (ip), vehicle: saline, higher = longer survival); 98 % of control (endpoint: median survival time, dose: 4.0 mg/kg/injection, schedule: Q01DX001 (oral), vehicle: saline with Tween-80, higher = longer survival); 95 % of control (endpoint: median survival time, dose: 4.0 mg/kg/injection, schedule: Q02DX009 (ip), vehicle: saline with Tween-80, higher = longer survival); 180 % of control (endpoint: median survival time, dose: 4.0 mg/kg/injection, schedule: Q02DX009 (ip), vehicle: saline, higher = longer survival); 92 % of control (endpoint: median survival time, dose: 8.0 mg/kg/injection, schedule: Q01DX001 (oral), vehicle: saline with Tween-80, higher = longer survival). Moreover, the T/C reads like this: (endpoint: median survival time, dose: 8.0 mg/kg/injection, schedule: Q02DX009 (ip), vehicle: saline with Tween-80, higher = longer survival) 88 % of control; (endpoint: median survival time, dose: 8.0 mg/kg/injection, schedule: Q02DX009 (ip), vehicle: saline, higher = longer survival) 153 % of control; (endpoint: median survival time, dose: 16.0 mg/kg/injection, schedule: Q01DX001 (oral), vehicle: saline with Tween-80, higher = longer survival) 91 % of control; (endpoint: median survival time, dose: 16.0 mg/kg/injection, schedule: Q02DX009 (ip), vehicle: saline with Tween-80, higher = longer survival) 117 % of control; (endpoint: median survival time, dose: 16.0 mg/kg/injection, schedule: Q02DX009 (ip), vehicle: saline, higher = longer survival) 180 % of control; (endpoint: median survival time, dose: 32.0 mg/kg/injection, schedule: Q01DX001 (oral), vehicle: saline with Tween-80, higher = longer survival) 93 % of control. The T/C reads like this: (endpoint: median survival time, dose: 32.0 mg/kg/injection, schedule: Q02DX009 (ip), vehicle: saline, higher = longer survival) 97 % of control; (endpoint: median survival time, dose: 64.0 mg/kg/injection, schedule: Q01DX001 (oral), vehicle: saline with Tween-80, higher = longer survival) 105 % of control; (endpoint: median survival time, dose: 512.0 mg/kg/injection, schedule: Q01DX001 (oral), vehicle: saline with Tween-80, higher = longer survival) 88 % of control.

Consider `Nc1ncnc2c1ccn2C1OC(CO)C(O)C1O` (stereo not given), for which the T/C is, setting by setting: under setting [1], 111 % of control; (endpoint: median survival time, dose: 0.5 mg/kg/injection, schedule: Q01DX009 (ip), vehicle: Klucel (hydroxypropylcellulose) (HPC), higher = longer survival) 106 % of control; under setting [2], 106 % of control; under setting [3], 110 % of control; under setting [4], 99 % of control.

For `CO[C@H](C(=O)[C@@H](O)[C@@H](C)O)[C@@H]1Cc2cc3cc(OC4CC(OC5CC(O)C(O)C(C)O5)C(O)C(C)O4)c(C)c(O)c3c(O)c2C(=O)[C@H]1OC1CC(OC2CC(OC3CC(C)(O)C(O)C(C)O3)C(O)C(C)O2)C(O)C(C)O1` (stereo not given in full), the T/C runs as follows: under setting [5], 100 % of control; under setting [1], 114 % of control; under setting [2], 116 % of control; under setting [4], 118 % of control; (endpoint: median survival time, dose: 3.8 micrograms/kg/injection, schedule: Q01DX009 (ip), vehicle: water, higher = longer survival) 104 % of control; (endpoint: median survival time, dose: 7.5 micrograms/kg/injection, schedule: Q01DX009 (ip), vehicle: water, higher = longer survival) 107 % of control. Besides, the T/C is 101 % of control (endpoint: median survival time, dose: 15.0 micrograms/kg/injection, schedule: Q01DX009 (ip), vehicle: water, higher = longer survival); 114 % of control (endpoint: median survival time, dose: 30.0 micrograms/kg/injection, schedule: Q01DX009 (ip), vehicle: water, higher = longer survival); 93 % of control (endpoint: median survival time, dose: 60.0 micrograms/kg/injection, schedule: Q01DX009 (ip), vehicle: water, higher = longer survival); 91 % of control (endpoint: median survival time, dose: 120.0 micrograms/kg/injection, schedule: Q01DX009 (ip), vehicle: water, higher = longer survival); 86 % of control (endpoint: median survival time, dose: 250.0 micrograms/kg/injection, schedule: Q01DX009 (ip), vehicle: water, higher = longer survival).

Take `COc1cccc2c1C(=O)c1c(O)c3c(c(O)c1C2=O)C[C@@](O)(C(C)=O)C[C@@H]3OC1CC(N)C(O)C(C)O1` (stereo not given in full): the T/C is 87 % of control and 105 % of control under setting [5]; 64 % of control (endpoint: median tumor weight (est.), dose: 0.12 mg/kg/injection, schedule: Q01DX009 (ip), vehicle: saline, higher = larger tumour); 86 % of control and 100 % of control (endpoint: median tumor weight (est.), dose: 0.25 mg/kg/injection, schedule: Q01DX009 (ip), vehicle: saline, higher = larger tumour); 55 % of control (endpoint: median tumor weight (est.), dose: 0.5 mg/kg/injection, schedule: Q01DX009 (ip), vehicle: saline, higher = larger tumour).

On to `COC(=O)[C@@]12OC[C@]34[C@H]([C@@H](O)[C@@H]1O)[C@@]1(C)CC(=O)C(O)=C(C)[C@@H]1C[C@H]3OC(=O)[C@H](OC(=O)/C=C(\C)C(C)C)[C@@H]24`, for which the T/C by setting is: under setting [6], 109 % of control; under setting [7], 96 % of control; (endpoint: median survival time, dose: 1.0 mg/kg/injection, schedule: Q01DX009 (ip), vehicle: saline with Tween-80, higher = longer survival) 103 % of control; (endpoint: median survival time, dose: 1.1 mg/kg/injection, schedule: Q01DX009 (ip), vehicle: saline with Tween-80, higher = longer survival) 121 % of control; (endpoint: median survival time, dose: 1.3 mg/kg/injection, schedule: Q04DX003 (ip), vehicle: saline with Tween-80, higher = longer survival) 116 % of control; (endpoint: median survival time, dose: 2.0 mg/kg/injection, schedule: Q01DX001 (ip), vehicle: saline with Tween-80, higher = longer survival) 103 % of control. Further, the T/C (endpoint: median survival time, dose: 2.0 mg/kg/injection, schedule: Q04DX003 (ip), vehicle: saline with Tween-80, higher = longer survival) was 112 % of control.

With `N[C@H](C(=O)O)[C@H]1ON=C(Cl)[C@@H]1O`, the T/C is 113 % of control (endpoint: median survival time, dose: 8.0 mg/kg/injection, schedule: Q01DX009 (ip), vehicle: saline, higher = longer survival); 114 % of control (endpoint: median survival time, dose: 16.0 mg/kg/injection, schedule: Q01DX009 (ip), vehicle: saline, higher = longer survival); 108 % of control (endpoint: median survival time, dose: 32.0 mg/kg/injection, schedule: Q01DX009 (ip), vehicle: saline, higher = longer survival); 114 % of control (endpoint: median survival time, dose: 128.0 mg/kg/injection, schedule: Q01DX009 (ip), vehicle: saline, higher = longer survival); 114 % of control (endpoint: median survival time, dose: 256.0 mg/kg/injection, schedule: Q01DX009 (ip), vehicle: saline, higher = longer survival); 117 % of control (endpoint: median survival time, dose: 500.0 mg/kg/injection, schedule: Q01DX009 (ip), vehicle: saline with Tween-80, higher = longer survival).

For the compound `COC(=O)C[C@](O)(CCCC(C)(C)O)C(=O)O[C@@H]1C(OC)=C[C@]23CCCN2CCc2cc4c(cc2[C@H]13)OCO4`, the T/C (endpoint: median survival time, dose: 0.25 mg/kg/injection, schedule: Q01DX009 (ip), vehicle: acid diluted with saline, higher = longer survival) is 118 % of control; the T/C (endpoint: median survival time, dose: 0.5 mg/kg/injection, schedule: Q01DX009 (ip), vehicle: acid diluted with saline, higher = longer survival) was 100 % of control; the T/C (endpoint: median survival time, dose: 0.7 mg/kg/injection, schedule: Q01DX009 (ip), vehicle: acid diluted with saline, higher = longer survival) was 101 % of control; the T/C (endpoint: median survival time, dose: 1.0 mg/kg/injection, schedule: Q01DX009 (ip), vehicle: acid diluted with saline, higher = longer survival) was 103 % of control; the T/C (endpoint: median survival time, dose: 1.5 mg/kg/injection, schedule: Q01DX009 (ip), vehicle: acid diluted with saline, higher = longer survival) was 101 % of control.

Consider `O=NN(CCCl)C(=O)NC1CCC(=O)NC1=O` (stereo not given), for which the T/C under setting [3] is 115 % of control; the T/C (endpoint: median survival time, dose: 1.56 mg/kg/injection, schedule: Q01DX007 (ip), vehicle: Klucel (hydroxypropylcellulose) (HPC), higher = longer survival) was 97 % of control; the T/C (endpoint: median survival time, dose: 4.0 mg/kg/injection, schedule: Q01DX009 (ip), vehicle: Klucel (hydroxypropylcellulose) (HPC), higher = longer survival) was 168 % of control and 228 % of control; the T/C (endpoint: median survival time, dose: 4.32 mg/kg/injection, schedule: Q01DX007 (ip), vehicle: Klucel (hydroxypropylcellulose) (HPC), higher = longer survival) is 98 % of control; the T/C (endpoint: median survival time, dose: 7.2 mg/kg/injection, schedule: Q01DX007 (ip), vehicle: Klucel (hydroxypropylcellulose) (HPC), higher = longer survival) was 121 % of control; the T/C (endpoint: median survival time, dose: 17.0 mg/kg/injection, schedule: Q01DX001 (ip), vehicle: gum acacia, higher = longer survival) was 177 % of control. Besides, the T/C (endpoint: median survival time, dose: 23.0 mg/kg/injection, schedule: Q01DX001 (ip), vehicle: gum acacia, higher = longer survival) was 89 % of control.

With `OCC1SC(O)C(O)C(O)C1O` (stereo not given), the T/C was 104 % of control (endpoint: median survival time, dose: 500.0 mg/kg/injection, schedule: Q02HX003 (ip), vehicle: saline, higher = longer survival); 103 % of control (endpoint: median survival time, dose: 500.0 mg/kg/injection, schedule: Q02HX003 (ip), vehicle: water, higher = longer survival); 89 % of control (endpoint: median survival time, dose: 1000.0 mg/kg/injection, schedule: Q02HX003 (ip), vehicle: saline, higher = longer survival); 95 % of control (endpoint: median survival time, dose: 1000.0 mg/kg/injection, schedule: Q02HX003 (ip), vehicle: water, higher = longer survival); 100 % of control (endpoint: median survival time, dose: 1500.0 mg/kg/injection, schedule: Q01DX001 (ip), vehicle: saline, higher = longer survival); 99 % of control (endpoint: median survival time, dose: 1500.0 mg/kg/injection, schedule: Q01DX001 (ip), vehicle: water, higher = longer survival). Moreover, the T/C was 91 % of control (endpoint: median survival time, dose: 3000.0 mg/kg/injection, schedule: Q01DX001 (ip), vehicle: saline, higher = longer survival) and 92 % of control (endpoint: median survival time, dose: 3000.0 mg/kg/injection, schedule: Q01DX001 (ip), vehicle: water, higher = longer survival).

With `O=c1[nH]cc(N(CCCl)CCCl)c(=O)[nH]1`, the T/C by setting is: under setting [6], 109 % of control; under setting [7], 124 % of control.
